The record followed here is patent publication US4797280A, “Antibiotics produced by Kibdelosporangium aridum Shearer gen. nov., sp. nov. ATCC 39323” (SmithKline Beckman Corporation, priority 1986, dated 1989).

Where a SMILES comes first, the peptide text is derived from it. Bridges are numbered along the chain shown (N, C = ends). [ ]: non-standard residue; d: D form. The star is where a group is joined. Ileψ(thiazoline)Cys = CC[C@H](C)[C@H](N)C1=N[C@H](C(=O)*)CS1; dOrn = NCCC[C@@H](N)C(=O)O

One assay deals with Kibdelosporangium aridum. Briefly: Susceptibility of K. aridum to antibiotics, disk diffusion. The conditions noted are these: for Susceptibility of K. aridum: 28° C., one week. It is filed as cell-based. As to the method:
Susceptibility of K. aridum to antibiotics was examined by placing BBL susceptibility disks on nutrient agar plates seeded with K. aridum as an overlay. Diameters of the zones of inhibition were measured after incubation for one week at 28° C.
Susceptibility to Antibiotics. […] Chlortetracycline ([…]) produced 18 mm zones of inhibition; tetracycline (5 μg) 11-12 mm zones; rifampin (5 μg) 11-15 mm zones; novobiocin (5 μg) 27-28 mm zones. All zones of inhibition contained at least a few resistant colonies.
On the technique in general: In agar diffusion tests the substance spreads into inoculated agar from a disc or well.

For the next assay, the system named is rumen inoculum. Description: Rumen in vitro model. Further details: species or system steer.
Assay [1] deals with rumen fluid from dairy cows. Briefly: Rumen in vitro experiment with dairy cow rumen fluid. The conditions noted are these: about 23 hours. As to the method:
A similar experiment was carried out using rumen fluid from dairy cows fed a typical dairy cow diet of two parts corn silage and three parts dairy concentrate. Specifically, strained rumen fluid (10 ml) was obtained, from an animal fed two hours earlier, via cannula and was mixed with 10 ml of a nutrient broth comprising a 2:3 mix of corn silage and dairy concentrate. After adding a selected growth promotant, the mixture was incubated at 39° C. for about 23 hours, with oscillation.

Regarding `CC1(C)S[C@@H]2[C@H](NC(=O)Cc3ccccc3)C(=O)N2[C@H]1C(=O)O` [penicillin], the “Susceptibility of K. aridum” value with Kibdelosporangium aridum (disk 10 units) is listed as “resistant”.
Consider gentamicin, for which the “Susceptibility of K. aridum” value with Kibdelosporangium aridum (disk 10 μg) was “resistant”.
`CCC[C@@H]1C[C@@H](C(=O)N[C@@H]([C@H]2O[C@H](SC)[C@H](O)[C@@H](O)[C@H]2O)[C@@H](C)O)N(C)C1` [lincomycin]: the “Susceptibility of K. aridum” value in the assay with Kibdelosporangium aridum (disk 2 μg) is recorded as “resistant”.
Regarding `CC[C@H](C)[C@H](N)C1=N[C@H](C(=O)N[C@@H](CC(C)C)C(=O)N[C@H](CCC(=O)O)C(=O)N[C@H](C(=O)N[C@H]2CCCCNC(=O)[C@H](CC(N)=O)NC(=O)[C@@H](CC(=O)O)NC(=O)[C@H](Cc3cnc[nH]3)NC(=O)[C@@H](Cc3ccccc3)NC(=O)[C@H]([C@@H](C)CC)NC(=O)[C@@H](CCCN)NC2=O)[C@@H](C)CC)CS1` [bacitracin] ({Ileψ(thiazoline)Cys}-L[dE]IK[dOrn]I[dF]H[dD]N; lactam 4-C), the “Susceptibility of K. aridum” value in the assay on Kibdelosporangium aridum (disk 2 units) is recorded as “resistant”.
Compound `CN(C)[C@@H]1C(O)=C(C(N)=O)C(=O)[C@@]2(O)C(O)=C3C(=O)c4c(O)ccc(Cl)c4[C@@](C)(O)[C@H]3C[C@@H]12` [Chlortetracycline] came in with a Zone of inhibition in the assay on Kibdelosporangium aridum (disk 5 g (so in the source), zones contained a few resistant colonies) of 18 mm.
As for `CCC[C@@H]1C[C@@H](C(=O)N[C@@H]([C@H]2O[C@H](SC)[C@H](O)[C@@H](O)[C@H]2O)[C@H](C)Cl)N(C)C1` [clindamycin], the “Susceptibility of K. aridum” value with Kibdelosporangium aridum (disk 2 μg) was “resistant”.
Regarding `CC[C@@]1([C@H]2O[C@H]([C@H]3O[C@@](O)(CO)[C@H](C)C[C@@H]3C)C[C@H]2C)CC[C@H]([C@@]2(C)CC[C@]3(C[C@H](O)[C@@H](C)[C@@H]([C@H](C)[C@H](OC)[C@@H](C)C(=O)O)O3)O2)O1` [Monensin Sodium], in the assay on rumen inoculum (0.5 ppm), the “% PR” value is recorded as 119% OF CONTROL, the ACE came out at 78% OF CONTROL, the AMO was 0% OF CONTROL and the BUT is 100% OF CONTROL. In the assay on rumen inoculum (0.5 ppm), this compound registered a DLAC of 0% OF CONTROL, an ETOH of 0% OF CONTROL, an IBU of 138% OF CONTROL and an IVA of 219% OF CONTROL. In the assay on rumen inoculum (0.5 ppm), this compound returned an LLAC of 0% OF CONTROL, a PRO of 112% OF CONTROL, a TOTAL of 94% OF CONTROL and a UREA of 0% OF CONTROL. In the assay with rumen inoculum (0.5 ppm), this compound displayed a VAL of 101% OF CONTROL and a VFA of 94 % Control. In the assay on rumen inoculum (5 ppm), the “% PR” value was 149% OF CONTROL, the ACE is recorded as 74% OF CONTROL, the AMO is listed as 0% OF CONTROL and the BUT is given as 93% OF CONTROL. In the assay on rumen inoculum (5 ppm), this compound had a DLAC of 0% OF CONTROL, an ETOH of 0% OF CONTROL, an IVA of 265% OF CONTROL and an LLAC of 178% OF CONTROL. In the assay on rumen inoculum (5 ppm), this compound had a PRO of 154% OF CONTROL, a TOTAL of 104% OF CONTROL, a UREA of 0% OF CONTROL and a VAL of 99% OF CONTROL. This compound also registered a VFA in the assay on rumen inoculum (5 ppm) of 104 % Control. Further, in the assay on rumen inoculum (50 ppm), the “% PR” value was 156% OF CONTROL, the ACE was 73% OF CONTROL, the AMO is on record as 0% OF CONTROL and the BUT came to 98% OF CONTROL. Moreover, in the assay on rumen inoculum (50 ppm), the DLAC is on record as 0% OF CONTROL, the ETOH is 0% OF CONTROL, the IBU is on record as 196% OF CONTROL and the IVA amounted to 278% OF CONTROL. Also, in the assay on rumen inoculum (50 ppm), the LLAC is on record as 999% OF CONTROL, the PRO turned out to be 171% OF CONTROL, the UREA was determined as 0% OF CONTROL and the VAL was 107% OF CONTROL. Besides, in assay [1] (0.5 ppm), the “% PR” value came out at 117% OF CONTROL, the ACE is on record as 100% OF CONTROL, the AMO is 115% OF CONTROL and the BUT was 94% OF CONTROL. For the same compound, in assay [1] (0.5 ppm), the DLAC was 0% OF CONTROL, the ETOH turned out to be 0% OF CONTROL, the GLU was determined as 0% OF CONTROL and the IBU is 104% OF CONTROL. In assay [1] (0.5 ppm), this compound displayed an IVA of 114% OF CONTROL, an LLAC of 0% OF CONTROL, an LYS of 96% OF CONTROL and an NH--N of 137% OF CONTROL. In assay [1] (0.5 ppm), this compound gave a PRO of 122% OF CONTROL, a TOTAL of 104% OF CONTROL and a VAL of 105% OF CONTROL. In addition, in assay [1] (5 ppm), the “% PR” value turned out to be 146% OF CONTROL, the ACE came to 102% OF CONTROL, the AMO came out at 238% OF CONTROL and the BUT came to 71% OF CONTROL. In assay [1] (5 ppm), the DLAC was 0% OF CONTROL, the ETOH is given as 0% OF CONTROL, the GLU was determined as 0% OF CONTROL and the IBU came to 91% OF CONTROL. Further, in assay [1] (5 ppm), the IVA amounted to 75% OF CONTROL, the LLAC was found to be 0% OF CONTROL, the LYS turned out to be 95% OF CONTROL and the NH--N stood at 105% OF CONTROL. In assay [1] (5 ppm), the PRO worked out at 145% OF CONTROL, the TOTAL turned out to be 99% OF CONTROL and the VAL came to 81% OF CONTROL. In assay [1] (50 ppm), the “% PR” value worked out at 185% OF CONTROL, the ACE is 76% OF CONTROL, the AMO is 274% OF CONTROL and the BUT came out at 59% OF CONTROL. Also, in assay [1] (50 ppm), the DLAC is listed as 0% OF CONTROL, the ETOH was determined as 0% OF CONTROL, the GLU was 0% OF CONTROL and the IBU is 55% OF CONTROL. In assay [1] (50 ppm), this compound gave an IVA of 45% OF CONTROL, an LLAC of 0% OF CONTROL, an LYS of 120% OF CONTROL and an NH--N of 84% OF CONTROL. In assay [1] (50 ppm), this compound yielded a PRO of 159% OF CONTROL, a TOTAL of 86% OF CONTROL and a VAL of 58% OF CONTROL.
Regarding `NC[C@H]1O[C@H](O[C@H]2[C@H](O)[C@@H](O[C@H]3O[C@H](CO)[C@@H](O)[C@H](N)[C@H]3O)[C@H](N)C[C@@H]2N)[C@H](N)C[C@@H]1O` [tobramycin], the “Susceptibility of K. aridum” value in the assay on Kibdelosporangium aridum (disk 10 μg) was “resistant”.
`[H]/N=C(/N)N[C@H]1[C@H](O)[C@@H](O)[C@H](O[C@@H]2O[C@@H](C)[C@](O)(C=O)[C@H]2O[C@@H]2O[C@@H](CO)[C@H](O)[C@@H](O)[C@@H]2NC)[C@@H](N/C(N)=N\[H])[C@@H]1O` [streptomycin]: the “Susceptibility of K. aridum” value with Kibdelosporangium aridum (disk 10 μg) is “resistant”.
As for `CC(=O)OCC1=C(C(=O)O)N2C(=O)[C@@H](NC(=O)Cc3cccs3)[C@H]2SC1` [cephalothin], the “Susceptibility of K. aridum” value in the assay on Kibdelosporangium aridum (disk 30 μg) was “resistant”.
